The values that follow come from paper PMC11123956, “Nobiletin Stimulates Adrenal Hormones and Modulates the Circadian Clock in Mice” (Nutrients, 2024).

Some results are limits rather than exact numbers.

As a reminder, the IC50 is the concentration that gives 50% inhibition.

A short description of data set [1]: Blood glucose after i.p. injection. To be noted: 100 mg/kg, after 4 h fasting, 0-90 min. It counts as in vivo, mice. The procedure: Male C57BL/6J mice (7 weeks old) were purchased from Charles River Japan (Kanagawa, Japan) and used for the serum hormone assay and RT-PCR. Male ICR mice were purchased from Tokyo Laboratory Animals Science Co., Ltd. (Tokyo, Japan), and female PERIOD2::LUCIFERASE (PER2::LUC) knock-in mice (ICR background) bred at Waseda University were used for blood glucose measurements and in vivo imaging assays, respectively. The mice were all housed under conditions of controlled temperature (23 °C ± 3 °C), humidity (50% ± 20%), and lighting (lights on from 07:00 to 19:00 at Taisho Pharmaceutical Co., Ltd. or from 08:00 to 20:00 at Waseda University). In the 24 h cycle, Zeitgeber time 0 (ZT0) was designated as the time when the lights were turned on, and ZT12 was designated as the time when the lights were turned off. […]
Serum corticosterone, adrenaline, and adreno-corticotropic hormone (ACTH) levels, and corticotropin releasing factor (CRF) in the hypothalamus, were measured using enzyme-linked immunosorbent assay (ELISA). […] Blood glucose levels were measured using a Glucose PILOT kit (Aventir Biotech, LLC, Carlsbad, CA, USA). The range of blood glucose that could be precisely measured with the kit was 20–600 mg/dL. […]

In another data set the target is T1, PDE10A2 (Homo sapiens, UniProt Q9Y233).
T1 construct: purchased Eurofins Panlabs Discovery Services Taiwan, Ltd. (contract assay); host or cells: insect Sf9 cells
Kind of data set: PDE enzyme (kinase) assay, PDE10A2. It counts as biochemical. On the procedure:
Enzyme assays for various subtypes of PDE (Table 1 and Figure 4) were conducted by Eurofins Panlabs Discovery Services Taiwan, Ltd. (New Taipei City, Taiwan). In the assays, five or six concentrations of nobiletin over five or six orders of magnitude were examined in experiments conducted in duplicate to determine the IC50 (concentration of nobiletin exerting half-maximal inhibition of control-specific activity). IC50 values were determined by nonlinear least squares regression analysis using MathIQTM (ID Business Solutions Ltd., Woking, UK). FAM-cAMP, FAM-cGMP (0.1 μM), and 100 μM [^3H]cGMP + cGMP were used for the substrate in the human recombinant insect Sf9 cells or Bovine retinal rod outer segments depending on the PDE subtype. The spectrofluorometric quantitation of fluorescein-AMP-IMAP, fluorescein-GMP-IMAP, or [^3H] guanosine was used depending on the PDE subtype. A known […] of each PDE was used as the positive control.
Figure 4 PDE kinase assays and the acute clock gene expression changes by PDE4 inhibitor or ROR α/γ agonist. (A) Inhibitory effect of nobiletin on PDE4A1, 4B1, and 10A2. Various concentrations of nobiletin (1–100 μM) were used for IC50 determination (Table 1). Values represent the mean of two experiments. Positive controls were rolipram for PDE4A1 and 4B1 and papaverine for PDE10A2. […]

Details of data set [2]: method as in doi:10.1016/j.jddst.2022.104013. The settings on record: rats; cited from earlier work.

T1 sequence (Q9Y233 267-1055): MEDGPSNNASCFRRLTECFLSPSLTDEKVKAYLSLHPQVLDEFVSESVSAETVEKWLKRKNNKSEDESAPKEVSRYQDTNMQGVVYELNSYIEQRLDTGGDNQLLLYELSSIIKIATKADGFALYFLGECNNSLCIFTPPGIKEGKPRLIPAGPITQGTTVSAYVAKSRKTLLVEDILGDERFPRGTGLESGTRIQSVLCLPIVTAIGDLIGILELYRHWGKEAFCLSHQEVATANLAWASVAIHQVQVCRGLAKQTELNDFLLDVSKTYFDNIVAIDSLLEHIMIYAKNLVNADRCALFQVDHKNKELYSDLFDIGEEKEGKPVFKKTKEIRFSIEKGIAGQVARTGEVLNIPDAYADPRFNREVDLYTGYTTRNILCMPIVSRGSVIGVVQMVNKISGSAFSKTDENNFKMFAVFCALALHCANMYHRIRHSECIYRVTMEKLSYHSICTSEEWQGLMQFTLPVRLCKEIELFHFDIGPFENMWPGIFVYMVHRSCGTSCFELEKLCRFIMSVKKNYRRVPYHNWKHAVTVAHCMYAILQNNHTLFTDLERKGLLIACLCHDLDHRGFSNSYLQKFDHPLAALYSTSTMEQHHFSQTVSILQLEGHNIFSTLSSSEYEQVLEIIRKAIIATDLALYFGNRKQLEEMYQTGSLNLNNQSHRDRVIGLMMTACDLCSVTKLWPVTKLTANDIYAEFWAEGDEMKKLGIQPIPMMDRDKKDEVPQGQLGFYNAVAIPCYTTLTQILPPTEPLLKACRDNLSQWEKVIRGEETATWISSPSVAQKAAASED

Regarding `COc1ccc(-c2cc(=O)c3c(OC)c(OC)c(OC)c(OC)c3o2)cc1OC` [nobiletin], the blood glucose levels entry in data set [1] is “increased”. In addition, the IC50 was at most 6030 nM at PDE10A2 (IC50, PDE10A2, bound stated in the discussion) and 1510 nM against PDE10A2 (IC50 Dose, PDE10A2, duplicate). In data set [2], the “time of the highest plasma concentration” value was 2 to 4 h.
